In US8822500B2, “Tyrosine kinase inhibitors” (Chembridge Corporation, priority 2008, dated 2014):
Read-outs that look alike come from different tables or passages of the source.

How the values were obtained:
[1] = biological target: ALK (Homo sapiens (Human), UniProt Q9UM73); experiment: In vitro kinase activity assay (LANCE TR-FRET); format: biochemical;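 also: kinase reactions with ATP and a poly-GT peptide substrate, phosphorylated product read by time-resolved FRET, 11-point curve from 10^−11 to 10^−5 M, DMSO as negative control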
[2] = tested on: U937 lymphoma cells; experiment: Cellular assay, 3 day cell viability (WST-1); format: cell-based; conditions: Homo sapiens, U-937, 72 h
[3] = biological target: TrkA (Homo sapiens (Human), UniProt P04629); experiment: In vitro kinase activity assay (LANCE TR-FRET); format: biochemical;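 also: kinase reaction with poly-GT peptide substrate and ATP, phosphorylated product quantified by time-resolved FRET, eleven-point dose curves from 10^−11 to 10^−5 M in triplicate, DMSO as negative control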
[4] = biological target: RET (Homo sapiens (Human), UniProt P07949); experiment: In vitro kinase activity assay (LANCE TR-FRET); format: biochemical
[5] = tested on: SUDHL-1 lymphoma cells; experiment: Cellular assay, 3 day cell viability (WST-1); format: cell-based; conditions: Homo sapiens, SU-DHL-1, 72 h
[6] = biological target: hERG (human ether-a-go-go related gene) potassium channel (Homo sapiens (Human), UniProt Q12809); experiment: hERG potassium channel current, automated patch clamp (PatchXpress 7000A);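 also: Four-point series of 0.3, 3, 10 and 30 µM, two cells recorded per concentration, 5 min exposure at each level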
[7] = Metabolic stability, Phase I microsome reactions; format: in vitro ADME, mouse; conditions: 1.0 mg/ml microsomes; for microsomal CLint at 0.5 μM / half-life at 0.5 μM: mouse, liver microsomes, pH 7.4, Phase I only; for microsomal CLint at 0.5 μM: read-out: Mouse LM-P1 CL; for half-life at 0.5 μM: read-out: Mouse LM-P1 Half-life
[8] = tested on: K299 lymphoma cells; experiment: Cellular assay, 3 day cell viability (WST-1); format: cell-based; conditions: 72 h, 3 days
[9] = in vitro; conditions: human, microsomes; for microsomal CLint at 0.5 μM: pH 7.4, Human LM-P1 CL (ul/min/mg); for half-life at 0.5 μM: pH 7.4, Human LM-P1 Half-life (min)
[10] = biological target: cMET (Homo sapiens (Human), UniProt P08581); experiment: In vitro kinase activity assay (LANCE TR-FRET); format: biochemical
[11] = in vitro; conditions: rat, microsomes; for half-life at 0.5 μM: pH 7.4; for microsomal CLint at 0.5 μM: pH 7.4, Rat LM-P1 CL (ul/min/mg)
[12] = biological target: ROS (Homo sapiens (Human), UniProt P08922); experiment: In vitro kinase activity assay (LANCE TR-FRET); format: biochemical
[13] = Rat pharmacokinetics / bioavailability; format: in vivo
[14] = tested on: NB-1 neuroblastoma cells; experiment: Cellular assay, 3 day cell viability (WST-1); format: cell-based; conditions: 72 h
[15] = tested on: Caco-2 cells; experiment: Caco-2 cell permeation study; format: in vitro ADME; conditions: for Papp (10−6 cm/sec) A to B / Papp (10−6 cm/sec) B to A: 10 μM; for Papp (10−6 cm/sec) A to B: apical pH 6.5, 2 h; for Papp (10−6 cm/sec) B to A: basolateral pH 7.4, 2 h; for Efflux Ratio: Caco-2;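 as to all read-outs here: Caco-2 monolayers grown for 21–28 days with integrity confirmed by TEER, apical buffer HBSS with MES, basolateral buffer HBSS with HEPES, compound levels quantified by LC/MS/MS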
[16] = Caco-2 cell permeation study; format: in vitro ADME; conditions: human; for Papp A→B at 2 h, 10 μM: Caco-2, pH 6.5, 10 μM, apical pH 6.5, 2 h; for Papp B→A at 2 h, 10 μM: Caco-2, pH 7.4, 10 μM, basolateral pH 7.4, 2 h; for efflux ratio at 2 h, 10 μM: Caco-2, Caco-2;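 as to all read-outs here: Caco-2 monolayers grown for 21–28 days with integrity confirmed by TEER, apical buffer HBSS with MES, basolateral buffer HBSS with HEPES, compound levels quantified by LC/MS/MS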
[17] = 3 days, WST-1, read-out: U937 IC50
[18] = 3 days, WST-1, read-out: SUDHL-1 IC50
[19] = male, Sprague-Dawley, plasma, po, 10 mg/kg P.O.

Sequence of TrkA (P04629 33-796): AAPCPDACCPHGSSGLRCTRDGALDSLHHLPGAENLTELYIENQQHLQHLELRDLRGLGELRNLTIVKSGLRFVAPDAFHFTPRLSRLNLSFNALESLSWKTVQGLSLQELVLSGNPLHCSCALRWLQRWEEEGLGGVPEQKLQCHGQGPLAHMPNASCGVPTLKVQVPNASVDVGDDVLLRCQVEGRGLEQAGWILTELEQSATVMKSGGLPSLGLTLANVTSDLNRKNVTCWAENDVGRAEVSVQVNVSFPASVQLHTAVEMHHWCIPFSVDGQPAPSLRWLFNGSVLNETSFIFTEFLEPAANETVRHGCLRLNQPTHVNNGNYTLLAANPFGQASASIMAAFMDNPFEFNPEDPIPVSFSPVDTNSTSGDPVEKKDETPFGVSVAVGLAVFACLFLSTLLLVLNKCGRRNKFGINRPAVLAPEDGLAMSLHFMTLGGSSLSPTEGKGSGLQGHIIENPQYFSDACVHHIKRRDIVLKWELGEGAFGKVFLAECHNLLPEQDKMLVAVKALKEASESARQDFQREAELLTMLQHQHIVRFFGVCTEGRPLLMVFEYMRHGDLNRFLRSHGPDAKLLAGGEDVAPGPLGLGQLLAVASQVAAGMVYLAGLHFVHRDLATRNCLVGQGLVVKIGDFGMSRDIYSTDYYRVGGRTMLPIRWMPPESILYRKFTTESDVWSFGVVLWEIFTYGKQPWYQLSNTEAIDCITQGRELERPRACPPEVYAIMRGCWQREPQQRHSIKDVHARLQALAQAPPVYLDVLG
Sequence of cMET (P08581 25-1390): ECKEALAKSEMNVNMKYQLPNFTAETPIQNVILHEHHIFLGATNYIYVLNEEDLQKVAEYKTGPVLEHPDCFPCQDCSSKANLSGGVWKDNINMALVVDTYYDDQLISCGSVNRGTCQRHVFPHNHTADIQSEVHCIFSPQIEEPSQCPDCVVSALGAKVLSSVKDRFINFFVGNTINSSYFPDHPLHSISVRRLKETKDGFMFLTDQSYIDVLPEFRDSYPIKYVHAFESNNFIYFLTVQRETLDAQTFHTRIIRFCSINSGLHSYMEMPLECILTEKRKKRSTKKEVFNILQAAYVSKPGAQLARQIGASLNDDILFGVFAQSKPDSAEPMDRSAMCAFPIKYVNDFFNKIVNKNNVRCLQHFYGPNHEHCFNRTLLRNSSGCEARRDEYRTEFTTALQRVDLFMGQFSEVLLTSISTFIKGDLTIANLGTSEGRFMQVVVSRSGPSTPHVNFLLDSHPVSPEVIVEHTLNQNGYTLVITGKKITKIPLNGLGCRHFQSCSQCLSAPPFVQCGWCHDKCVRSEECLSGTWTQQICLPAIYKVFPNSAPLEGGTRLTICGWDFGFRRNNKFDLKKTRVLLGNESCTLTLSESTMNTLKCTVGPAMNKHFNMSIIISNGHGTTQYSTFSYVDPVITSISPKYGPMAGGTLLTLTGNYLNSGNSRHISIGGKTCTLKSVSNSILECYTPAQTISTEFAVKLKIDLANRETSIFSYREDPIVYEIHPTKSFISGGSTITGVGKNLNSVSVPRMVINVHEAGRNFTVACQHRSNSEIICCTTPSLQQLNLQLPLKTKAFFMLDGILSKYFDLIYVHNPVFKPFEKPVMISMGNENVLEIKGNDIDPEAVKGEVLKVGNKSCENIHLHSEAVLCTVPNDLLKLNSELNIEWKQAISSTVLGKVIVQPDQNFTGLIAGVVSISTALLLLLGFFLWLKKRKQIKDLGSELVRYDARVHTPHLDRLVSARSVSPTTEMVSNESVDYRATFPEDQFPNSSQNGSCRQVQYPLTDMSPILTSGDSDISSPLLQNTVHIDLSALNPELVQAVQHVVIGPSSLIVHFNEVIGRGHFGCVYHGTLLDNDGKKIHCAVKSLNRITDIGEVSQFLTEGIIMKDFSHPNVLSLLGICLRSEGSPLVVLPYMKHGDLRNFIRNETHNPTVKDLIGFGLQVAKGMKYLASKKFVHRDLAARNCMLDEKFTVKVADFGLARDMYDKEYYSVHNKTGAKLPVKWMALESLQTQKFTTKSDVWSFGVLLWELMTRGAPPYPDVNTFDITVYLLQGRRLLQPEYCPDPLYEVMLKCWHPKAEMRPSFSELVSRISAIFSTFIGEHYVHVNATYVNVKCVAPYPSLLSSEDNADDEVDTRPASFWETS
Sequence of RET (P07949 29-1114): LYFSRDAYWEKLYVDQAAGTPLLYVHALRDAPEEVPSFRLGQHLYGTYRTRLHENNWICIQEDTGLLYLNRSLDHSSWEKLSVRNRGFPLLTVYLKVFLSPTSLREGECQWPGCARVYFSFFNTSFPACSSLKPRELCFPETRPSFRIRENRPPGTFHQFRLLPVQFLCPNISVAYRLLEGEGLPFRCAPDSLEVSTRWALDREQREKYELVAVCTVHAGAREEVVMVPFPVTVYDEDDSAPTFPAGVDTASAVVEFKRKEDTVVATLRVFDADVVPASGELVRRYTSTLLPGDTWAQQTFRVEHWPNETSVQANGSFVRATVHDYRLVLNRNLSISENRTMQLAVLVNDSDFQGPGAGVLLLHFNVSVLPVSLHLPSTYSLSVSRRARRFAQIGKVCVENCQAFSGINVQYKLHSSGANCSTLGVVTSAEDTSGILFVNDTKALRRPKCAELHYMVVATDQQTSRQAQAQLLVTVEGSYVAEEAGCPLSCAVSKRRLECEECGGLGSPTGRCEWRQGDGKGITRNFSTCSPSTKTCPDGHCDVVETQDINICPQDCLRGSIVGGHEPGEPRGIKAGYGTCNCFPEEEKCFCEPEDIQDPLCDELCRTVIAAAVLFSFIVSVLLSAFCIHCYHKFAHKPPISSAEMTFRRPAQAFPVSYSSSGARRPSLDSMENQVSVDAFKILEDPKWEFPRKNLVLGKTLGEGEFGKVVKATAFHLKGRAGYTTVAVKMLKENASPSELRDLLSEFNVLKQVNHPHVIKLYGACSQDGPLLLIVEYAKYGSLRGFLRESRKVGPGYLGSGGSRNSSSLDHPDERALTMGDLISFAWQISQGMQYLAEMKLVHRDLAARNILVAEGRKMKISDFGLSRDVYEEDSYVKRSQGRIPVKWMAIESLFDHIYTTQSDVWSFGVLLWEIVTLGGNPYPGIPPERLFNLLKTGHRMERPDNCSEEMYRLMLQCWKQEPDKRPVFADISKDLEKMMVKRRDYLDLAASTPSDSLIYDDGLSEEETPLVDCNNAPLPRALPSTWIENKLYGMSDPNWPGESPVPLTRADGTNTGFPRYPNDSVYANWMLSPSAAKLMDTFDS
Sequence of hERG (human ether-a-go-go related gene) potassium channel (Q12809 whole entry): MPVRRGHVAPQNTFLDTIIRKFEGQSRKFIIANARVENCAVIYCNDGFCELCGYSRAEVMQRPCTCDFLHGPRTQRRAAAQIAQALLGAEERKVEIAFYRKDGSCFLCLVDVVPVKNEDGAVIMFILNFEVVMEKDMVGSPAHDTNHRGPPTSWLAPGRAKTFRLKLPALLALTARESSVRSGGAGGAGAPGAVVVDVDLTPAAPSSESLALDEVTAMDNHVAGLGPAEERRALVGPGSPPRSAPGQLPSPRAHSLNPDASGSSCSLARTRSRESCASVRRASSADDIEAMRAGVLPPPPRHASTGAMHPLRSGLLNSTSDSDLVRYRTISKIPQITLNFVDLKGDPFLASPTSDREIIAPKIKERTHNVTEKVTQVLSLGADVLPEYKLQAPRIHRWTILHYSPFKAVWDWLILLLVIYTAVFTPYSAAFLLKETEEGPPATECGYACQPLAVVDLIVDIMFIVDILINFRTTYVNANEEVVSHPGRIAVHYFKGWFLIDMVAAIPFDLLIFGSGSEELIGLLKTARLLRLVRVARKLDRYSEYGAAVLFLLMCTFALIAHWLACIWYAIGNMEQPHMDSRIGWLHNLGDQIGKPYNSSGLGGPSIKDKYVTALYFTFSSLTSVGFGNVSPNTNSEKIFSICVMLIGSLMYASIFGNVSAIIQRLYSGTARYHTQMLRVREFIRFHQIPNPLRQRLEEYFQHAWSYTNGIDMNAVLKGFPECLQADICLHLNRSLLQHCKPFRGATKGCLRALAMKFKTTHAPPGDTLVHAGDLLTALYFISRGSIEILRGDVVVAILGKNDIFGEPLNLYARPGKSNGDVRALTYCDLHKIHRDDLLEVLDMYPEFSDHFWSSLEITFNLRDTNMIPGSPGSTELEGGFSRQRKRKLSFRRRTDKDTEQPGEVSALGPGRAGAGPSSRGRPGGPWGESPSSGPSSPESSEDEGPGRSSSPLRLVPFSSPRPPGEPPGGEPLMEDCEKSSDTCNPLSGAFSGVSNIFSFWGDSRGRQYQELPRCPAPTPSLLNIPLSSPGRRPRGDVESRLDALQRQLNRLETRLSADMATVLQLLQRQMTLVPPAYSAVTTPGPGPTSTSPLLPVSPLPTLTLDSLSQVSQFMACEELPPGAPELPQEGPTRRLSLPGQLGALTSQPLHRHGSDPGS

Row | SMILES | IC50 ([1]; read-out: ALK (nM) IC50) | IC50 ([1]; read-out: ALK IC50) | IC50 [2, 17] | IC50 ([3]; read-out: TrKA IC50) | IC50 ([3]; read-out: TrkA (nM) IC50) | IC50 ([4]; read-out: RET (nM) IC50) | IC50 [6] | microsomal CLint at 0.5 μM [7] | half-life at 0.5 μM [7] | IC50 ([8]; read-out: K299 IC50) | microsomal CLint at 0.5 μM [9] | half-life at 0.5 μM [9] | IC50 [10] | half-life at 0.5 μM [11] | microsomal CLint at 0.5 μM [11] | IC50 ([12]; read-out: ROS (nM) IC50) | Papp (10−6 cm/sec) B to A [15] | Papp A→B at 2 h, 10 μM [16] | Papp B→A at 2 h, 10 μM [16] | efflux ratio at 2 h, 10 μM [16] | further results
1 | CC(Cc1cc(F)ccc1F)Nc1cc[nH]c(=O)c1-c1nc2cc3c(cc2[nH]1)C(=O)N(CCN(C)C)C3 (racemic) [Compound 18, 2-(4-(1-(2,5-Difluorophenyl)propan-2-ylamino)-2-oxo-1,2-dihydropyridin-3-yl)-6-(2-(dimethylamino)ethyl)-6,7-dihydroimidazo[4,5-f]isoindole-5(1H)-one] | 9.16 nM | 9 nM | > 3 µM | 4 nM | 4.33 nM | 13.1 nM | 5420 nM | 29.4 µL/min/mg | 0.393 h | 265 nM | < 5.8 µL/min/mg | > 2 h | 1000 to 3000 nM | 0.343 h | 33.3 µL/min/mg | 0.688 nM | – | – | – | – | IC50 [5, 18]: 0.172 µM
2 | CC(Oc1cc(-c2cnn(C3CCNCC3)c2)cnc1N)c1c(Cl)ccc(F)c1Cl (racemic) [PF2341066, crizotinib, reference compound] | – | – | – | – | – | – | – | – | – | – | – | – | – | – | – | – | 50.7 10−6 cm/sec | < 0.2 ×10⁻⁶ cm/s | 50.7 ×10⁻⁶ cm/s | – | IC50 ([2]; read-out: GTx-U937 IC50 (uM)): 1.67 µM; IC50 ([2]; read-out: U937 IC50(μM)): 1.67 µM; IC50 ([5]; read-out: GTx-SUDHL-1 IC50 (uM)): 0.132 µM; IC50 ([5]; read-out: SUDHL-1 IC50(μM)): 0.132 µM; MRT ([13]; male, Sprague-Dawley, plasma, iv, 10 mg/kg I.V.): 1.88 h; Cmax [13, 19]: 58.3 ng/mL; Tmax [13, 19]: 5.25 h; IC50 ([14]; read-out: GTx-NB-1 IC50 (uM)): 0.167 µM; IC50 ([14]; read-out: NB-1 IC50(μM)): 0.167 µM; Papp (10−6 cm/sec) A to B ([15]; listed as Pfizer): >0.2 10−6 cm/sec; Papp (10−6 cm/sec) A to B ([15]; listed as Pfizer (PF2341066)): <0.2 10−6 cm/sec
3 | C[C@@H](Cc1c(F)c(F)cc(F)c1F)Nc1cc[nH]c(=O)c1-c1nc2cc3c(cc2[nH]1)C(=O)N(CCN(C)C)C3=O [Compound 2, (S)-6-(2-(Dimethylamino)ethyl)-2-(2-oxo-4-((1-(2,3,5,6-tetrafluorophenyl)propan-2-yl)amino)-1,2-dihydropyridin-3-yl)imidazo[4,5-f]isoindole-5,7(1H,6H)-dione] | 14 nM | 14 nM | > 10 µM | 12 nM | 12.2 nM | 25.8 nM | > 30000 nM | – | – | 1920 nM | – | – | 14 nM | – | – | 0.436 nM | – | < 0.2 ×10⁻⁶ cm/s | 3.6 ×10⁻⁶ cm/s | > 17.8 | IC50 [5, 18]: 2.74 µM; IC50 ([14]; 3 days, WST-1, read-out: NB-1 IC50): 0.666 µM
4 | C[C@@H](Cc1c(F)c(F)cc(F)c1F)Nc1cc[nH]c(=O)c1-c1nc2cc3c(cc2[nH]1)C(=O)N(c1cccnc1)C3=O [Compound 12, (S)-2-(2-oxo-4-((1-(2,3,5,6-tetrafluorophenyl)propan-2-yl)amino)-1,2-dihydropyridin-3-yl)-6-(pyridin-3-yl)imidazo[4,5-f]isoindole-5,7(1H,6H)-dione] | 47.3 nM | 47 nM | – | 20 nM | 20.4 nM | – | > 3000 nM | < 5.8 µL/min/mg | > 2 h | > 10000 nM | < 5.8 µL/min/mg | > 2 h | > 10000 nM | > 2 h | < 5.8 µL/min/mg | – | – | < 0.2 ×10⁻⁶ cm/s | < 0.2 ×10⁻⁶ cm/s | – | –
5 | C[C@@H](Cc1c(F)c(F)cc(F)c1F)Nc1cc[nH]c(=O)c1-c1nc2cc3c(cc2[nH]1)C(O)N(c1cccnc1)C3=O (stereo partly drawn) [Compound 13, 7-Hydroxy-2-(2-oxo-4-4(((S)-1-(2,3,5,6-tetrafluorophenyl)propan-2-yl)amino)-1,2-dihydropyridin-3-yl)-6-(pyridin-3-yl)-6,7-dihydroimidazo[4,5-f]isoindol-5(1H)-one] | – | – | > 3 µM | 6 nM | – | – | – | 7.89 µL/min/mg | 1.46 h | 787 nM | 8.77 µL/min/mg | 1.32 h | > 10000 nM | 0.629 h | 18.4 µL/min/mg | – | – | < 0.2 ×10⁻⁶ cm/s | 1.9 ×10⁻⁶ cm/s | > 9.5 | –
6 | COC1c2cc3nc(-c4c(N[C@@H](C)Cc5c(F)c(F)cc(F)c5F)cc[nH]c4=O)[nH]c3cc2C(=O)N1c1cccnc1 (stereo partly drawn) [Compound 14, 7-Methoxy-2-(2-oxo-4-(((S)-1-(2,3,5,6-tetrafluorophenyl)propan-2-yl)amino)-1,2-dihydropyridin-3-yl)-6-(pyridin-3-yl)-6,7-dihydroimidazo[4,5-f]isoindol-5(1H)-one] | 174 nM | 174 nM | – | 42 nM | 41.6 nM | – | – | < 5.8 µL/min/mg | > 2 h | – | < 5.8 µL/min/mg | > 2 h | > 10000 nM | 1.71 h | 6.76 µL/min/mg | – | – | – | – | – | –
7 | CC(Cc1cc(F)ccc1F)Nc1cc[nH]c(=O)c1-c1nc2cc3c(cc2[nH]1)CN(C)C3=O (centres unmarked) [Compound 33, 2-(4-(1-(2,5-Difluorophenyl)propan-2-ylamino)-2-oxo-1,2-dihydropyridin-3-yl)-6-methyl-6,7-dihydroimidazo[4,5-f]isoindol-5(1H)-one] | 24.7 nM | – | – | – | 5.13 nM | 17.7 nM | > 10000 nM | – | – | – | 26.1 µL/min/mg | 0.443 h | – | 0.119 h | 97.2 µL/min/mg | 0.74 nM | 1.4 10−6 cm/sec | – | – | 0.8 | IC50 ([1]; read-out: GTx-ALK IC50): 25 nM; IC50 ([2]; 3 days, WST-1, read-out: GTx-U937 IC50): > 10 µM; IC50 ([3]; read-out: GTx-TrKA IC50): 5 nM; IC50 ([4]; read-out: GTx-RET IC50): 18 nM; IC50 ([5]; 3 days, WST-1, read-out: GTx-SUDHL-1 IC50): 0.867 µM; Mouse LM-P1 CL ([7]; Phase I only, 0.5 μM): 12.82 µL/min/mg; IC50 ([8]; read-out: GTx-K299 IC50): 532 nM; Papp (10−6 cm/sec) A to B [15]: 1.7 10−6 cm/sec; Efflux Ratio [15]: 0.5; IC50 ([12]; read-out: GTx-ROS IC50): 0.7 nM
8 | CC(Cc1c(F)c(F)cc(F)c1F)Nc1cc[nH]c(=O)c1-c1nc2cc3c(cc2n1C)C(=O)N(C)C3 (stereo not drawn) [Compound 43a, Cis-1,6-Dimethyl-2(2-oxo-4-(1-(2,3,5,6-tetrafluorophenyl)propan-2-ylamino)-1,2-dihydropyridin-3-yl)-6,7-dihydroimidazo[4,5-J]isoindol-5(1H)-one] | > 10000 nM | – | – | – | 6510 nM | > 10000 nM | – | – | – | – | – | – | – | – | – | 1200 nM | – | – | – | – | IC50 ([1]; read-out: GTx-ALK IC50): > 10000 nM; IC50 ([3]; read-out: GTx-TrKA IC50): 6510 nM; IC50 ([4]; read-out: GTx-RET IC50): > 10000 nM; IC50 ([12]; read-out: GTx-ROS IC50): 1120 nM
9 | CC(Cc1cc(F)ccc1F)Nc1cc[nH]c(=O)c1-c1nc2cc3c(cc2[nH]1)CNC3=O (centres unmarked) [Compound 53] | 34.1 nM | – | – | – | 7.81 nM | 16.9 nM | – | – | – | – | 25.3 µL/min/mg | 0.457 h | – | 0.145 h | 78 µL/min/mg | 1.88 nM | 7.41 10−6 cm/sec | 1.25 ×10⁻⁶ cm/s | 8.24 ×10⁻⁶ cm/s | 6.6 | IV_AUC0-1440 Rat 10 mpk ([13]; 10 mg/kg I.V.): 531 µg·min/mL; PO_AUC0-1440 Rat 10 mpk ([13]; 10 mg/kg P.O.): 2.13 µg·min/mL; bioavailability ([13]; male, Sprague-Dawley, plasma, po, 10 mg/kg P.O., read-out: Rat F %): 0.402%; Papp (10−6 cm/sec) A to B [15]: 0.76 10−6 cm/sec; Efflux Ratio [15]: 10.1
